Laboratory results from paper PMC9225715, “Development of PD3 and PD3-B for PDEδ inhibition to modulate KRAS activity” (Journal of Enzyme Inhibition and Medicinal Chemistry, 2022).

Tests used:
PDEδ [1] = target: T1, PDEδ (Homo sapiens, UniProt O43924); assay: FP-based competition binding assay using excess deltarasin
T1 construct: made in house; host or cells: E. coli BL21(DE3)
Protocol: Figure 3. Binding affinities of PDs measured by fluorescence polarisation. (A) Representative binding curve of PDs (PD3) titrated with PDEδ. The FP value was measured in PBS buffer (pH 7.2) containing 8 concentrations (0, 0.5, 1, 2, 4, 8, 16 and 32 μM) of PDEδ mixed with 0.5 μM PDs. Ex: 440 nm, Em: 526 nm; (B) Kd value and half-life of each compound; (C, D) Kinetic trace of PD3 and PD7 in the competition assay. PD3 was shown as a compound with the longest retention time (slow dissociation), whereas PD7 was shown as a compound with the shortest retention time (fast dissociation). The half-life was obtained by a competition binding assay using excess deltarasin. The optimal concentration of PDEδ for the competition assay was determined using the Kd value and PD concentration (0.5 μM) for making more than 68% of the binding complex. Ex: 430 nm, Em: 520 nm. TEXT PRINTED IN THE PICTURE: (A) PD3: Best-fit values Bmax: 261.7; Best-fit values Kd: 0.4991; Std. Error Bmax: 17.98; Std. […] Error Bmax 17.98 (last digit 8 or 6) and Std. Error Kd 0.1956 (5 and 6 not certain) / Panels C and D: k and half-life are printed without a label of their own; assigned to PD3 and PD7 from the panel legends (PDEδ+PD3+Del, PDEδ+PD7+Del)
To confirm that the PD compound occupies the same farnesylation binding site as deltarasin in PDEδ and to exclude the possibility that the FP signal resulted from non-specific hydrophobic interactions, we carried out a FP-based competition assay. PDs (0.5 µM) were incubated with the purified PDEδ protein for 2 h to ensure complete binding between the compound and the protein. Then, deltarasin was added to replace the PD compound in the prenyl binding pocket of PDEδ, which decreased the FP due to the free rotation of the released PD compound. As shown in Figure 3(B), the reverse correlation between Kd values and half-lives was observed (Figure 3(B) and Table 1). […] The rate constants and half-lives were measured only when the increased concentration of deltarasin produced concentration-independent kinetic parameters, which reflects complete displacement of the binding site with the deltarasin. The kinetic trace was fit to a single exponential decay to generate the dissociation rate constant and half-life. Given that the Kd value is a ratio of koff/kon in a simple bimolecular binding model, the measured half-life and Kd are not always matched due to the contribution from the association rate constant. Figure 3(C) (PD3) and 3 D (PD7) show a representative kinetic trace obtained in the competition assay.
Deltarasin, a well-known PDEδ inhibitor, was purchased from Chemietek (Indianapolis, IN) for the competition assay. Assay buffer and the plate were the same as used in fluorescence polarisation assay. The optimal concentration of PDEδ was determined based on the Kd values and ligand concentration (0.5 µM) to ensure the formation of ligand-protein complex. The mixture of PDEδ and compounds were incubated for 2 h at 4 °C. After adding deltarasin to the mixture, FP was immediately recorded by SpectraMax M5 microplate reader (Molecular Devices, San Jose, CA) with excitation at 430 nm and emission at 520 nm. In SpectraMax M5 microplate reader, single excitation and emission wavelengths need to be used for testing all compounds. Therefore, Ex 430/Em 520 was used for competition binding assay. The selected ex/em wavelengths have only a difference of less than 10 nm from the maximum wavelengths, and there was no critical issue for conducting assay. The kinetic trace was fit to a single exponential decay to generate dissociation rate constant and half-life.

PDEδ [2] = target: T1, PDEδ; assay: Native gel electrophoresis with in-gel fluorescence (target specificity); format: binding; settings: 5 or 50 µM PD3, PDEδ-overexpressing bacterial lysate or purified PDEδ, 12% native gel
Protocol: We also conducted native gel electrophoresis to further verify the specific binding of PD3 to native PDEδ using in-gel fluorescence scanning. […] We assumed that PD3 bound within the tertiary structure would be identified on the native gel. PD3 was incubated with bacterial lysate containing the overexpressed PDEδ protein (Figure 4(C,D), lanes 1–3) or purified PDEδ (Figure 4(C,D), lanes 4–6), and then these samples were run in a native gel to avoid denaturation of the protein. The in-gel fluorescence shown in Figure 4(C) (Ex: 312 nm, Em: 585–625 nm) was compared to the same gel stained with Coomassie that visualised the protein bands (Figure 4(D)), which confirmed the formation of the PD3-target protein complex. As expected, the fluorescence band was detected at the location of PDEδ and only detected in the lane with PD3 (lanes 2, 3, 5, and 6).
PD3 (5 or 50 µM) was added to the bacterial lysate (390 µM) or purified PDEδ protein (22.9 µM) and the mixture was incubated for 2 h at 4 °C. The samples were loaded on each lane and separated by 12% native PAGE in a running buffer [25 mM Tris-HCl (pH 8.0), 500 mM NaCl, 10 mM imidazole, 10% Glycerol] with 1/4 pellet of protease inhibitor (Roche, Penzberg, Upper Bavaria, Germany). The gels were run at 70 V for 2.5 h, followed by in-gel fluorescence measurement. The same gel was stained by Coomassie brilliant blue to visualise protein bands.

Cc1ccc(-c2nc3ccccc3c3cc4ccccn4c23)cc1 [PD3, 6-(p-tolyl)indolizino[3,2-c]quinoline]
Half-life (PDEδ [1]; representative kinetic trace, single exponential decay): 45 min
koff (PDEδ [1]; representative kinetic trace, single exponential decay, read-out: dissociation rate constant k (converted)): 0.00025 s⁻¹
Half-life (PDEδ [1]; retention in PDEδ on displacement by excess deltarasin, 0.5 µM PD, mean ± SD of three independent experiments): 41 ± 6 min
Binding specificity to PDEδ by in-gel fluorescence (PDEδ [2]): specifically binds to PDEδ in bacterial lysates
